Assay results: PMC5007854, “β-Nitrostyrenes as Potential Anti-leishmanial Agents” (Frontiers in Microbiology, 2016)
Values after ≈ are worked out from the molar mass of the structure shown. Where two headings read alike, the source gives them in different places.

Experiments:
[1] = tested on: L. donovani promastigotes; test: Promastigote cellular morphology by phase-contrast microscopy; assay type: cell-based, Leishmania donovani; conditions: 1 μM, 72 h
Method: Changes in the cellular morphology of Leishmania parasites as a result of compounds 9, 12, 14, and 18 treatment was observed microscopically. Briefly, the promastigotes (2 × 10^6 cells/mL) were incubated in the absence or presence of compounds and AmB for 72 h at a concentration of 1 μM and observed under 40 × objective of a phase-contrast microscope. […] Data were recorded by using NIS-Elements imaging software (Paris et al., [2004]).

[2] = tested on: nitric oxide production in L. donovani infected peritoneal macrophages; test: Nitrite (NO) production by Griess reaction in infected macrophages; assay type: cell-based, BALB/c mice; conditions: 48 h; for NO production (nitrite): compound at 25 μM; for NO levels, in words: 0–25 μM
Method: The supernatant from control L. donovani infected and treated macrophages were analyzed for nitrite content by the Griess reaction. In brief, equal volume of Griess reagent [1%sulphanilamide and 0.1% N-(1-naphthyl) ethylenediaminedihydrochloride in 5% phosphoric acid] was added to the culture supernatant and the plates were incubated for 10 min at room temperature using sodium nitrite as a standard. The absorbance at 550 nm was measured and the concentration of nitrite was calculated by a linear regression analyzing the standard curve generated with sodium nitrite (Varela et al., [2012]).

[3] = tested on: L. donovani promastigotes; test: Dose-dependent anti-promastigote activity, IC50 and IC90; assay type: cell-based, Leishmania donovani; conditions: Leishmania donovani, 72 h; for IC50: read-out: L. donovani promastigotes IC50 ± SEM; for IC90: read-out: L. donovani promastigotes IC90 ± SEM
Method: L. donovani parasites (MHOM/IN/83/AG83) were maintained in vivo in BALB/c mice. Promastigotes were routinely cultured at 22°C in medium M199 supplemented with 10% heat inactivated fetal bovine serum (FBS, HiMedia Laboratories, Mumbai, India), penicillin 100 (IU/ml), streptomycin (100 μg/ml). Log phase promastigotes were sub-cultured every 72–96 h, the inoculum being 2 × 10^6 cells/ml (Afrin et al., [2002]).
AmB was used as a standard antileishmanial drug control. The cell viability was evaluated by microscopically and the mean percentage viability was calculated as follows: Mean cell number of treated parasites / Mean cell number of untreated parasites × 100. The 50 and 90% inhibitory concentration (IC50 and IC90) i.e., the concentration of drugs that decreased the cell growth by 50 and 90% respectively was determined by graphical extrapolation after plotting the graph of % viability vs. concentration of drug (Islamuddin et al., [2014b]).
In vitro antileishmanial activity was expressed as IC50 by linear regression analysis. Values are mean ± SE of samples in triplicate from at least three independent experiments. Statistical analysis was performed using ANOVA followed by Dunnett's test. ^*P < 0.05, ^**P < 0.01 and ^***P < 0.001 compared with the untreated control group were considered significant.

[4] = tested on: Staphylococcus epidermidis ATCC 14990; test: Broth microdilution antibacterial susceptibility (MIC/MBC); assay type: cell-based; conditions: for MBC / MIC: Staphylococcus epidermidis; for MIC: ATCC14990, 24 h
Method in brief: (§1)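 CLSI broth microdilution: Ca/Mg-supplemented Mueller-Hinton for bacteria (~5 × 10^5 CFU/mL, 24 h), MOPS-buffered RPMI 1640 pH 7.0 for fungi (Candida ~2.5 × 10^4, Aspergillus 0.4-5 × 10^4 CFU/mL, 48 h), 35°C, 1% DMSO, 64 to 0.12 μg/mL. MIC read visually; MBC/MFC by plating clear wells.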

[5] = tested on: Escherichia coli ATCC 25922; test: as above; assay type: cell-based; conditions: for MBC / MIC: Escherichia coli; for MIC: ATCC25922, 24 h
Method in brief: as §1

[6] = tested on: Pseudomonas aeruginosa ATCC 27853; test: as above; assay type: cell-based; conditions: for MBC / MIC: Pseudomonas aeruginosa; for MIC: ATCC27853, 24 h
Method in brief: as §1

[7] = tested on: Staphylococcus aureus ATCC 29213; test: as above; assay type: cell-based; conditions: Staphylococcus aureus; for MIC: ATCC29213, 24 h
Method in brief: as §1

[8] = 22°C, mean from three determinations
[9] = ATCC14990, ≥99.9% reduction of original inoculum, read-out: MBC, Se ATCC 14990
[10] = ATCC25922, ≥99.9% reduction of original inoculum, read-out: MBC, Ec ATCC 25922
[11] = ATCC27853, ≥99.9% reduction of original inoculum, read-out: MBC, Pa ATCC 27853
[12] = ATCC29213, ≥99.9% reduction of original inoculum, read-out: MBC, Sa ATCC 29213
[13] = read-out: MIC, Se ATCC 14990, broth microdilution, 35°C, 24 h
[14] = ATCC14990, read-out: MBC, Se ATCC 14990
[15] = read-out: MIC, Ec ATCC 25922, broth microdilution, 35°C, 24 h
[16] = ATCC25922, read-out: MBC, Ec ATCC 25922
[17] = read-out: MIC, Pa ATCC 27853, broth microdilution, 35°C, 24 h
[18] = ATCC27853, read-out: MBC, Pa ATCC 27853
[19] = ATCC29213, read-out: MBC, Sa ATCC 29213
[20] = broth microdilution, 35°C, 24 h

Compound	Cellular morphological alterations of promastigotes [1]	NO production (nitrite) [2]	IC50 [3, 8]	IC90 [3, 8]	MBC [4, 9]	MBC [5, 10]	MBC [6, 11]	MBC [7, 12]	NO levels, in words [2]	IC50 [3]	IC90 [3]	MIC [4, 13]	MBC [4, 14]	MIC [5, 15]	MBC [5, 16]	MIC [6, 17]	MBC [6, 18]	MBC [7, 19]	further results
CC/C(=C\c1ccc(O)cc1)[N+](=O)[O-] [Compound 18, 4-((E)-2-nitrobut-1-enyl) phenol]	altered to an ovoid shape with cell shrinkage, loss of flagella, cytoplasmic condensation	3.22 µM	55.7 ± 2.84 nM	320 ± 3.65 nM	8 µg/mL (≈ 41.4 µM)	> 64 µg/mL	> 64 µg/mL	16 µg/mL (≈ 82.8 µM)											
CC/C(=C\c1cccc([N+](=O)[O-])c1)[N+](=O)[O-] [Compound 12, 1-nitro-3-((E)-2-nitrobut-1-enyl) benzene]	altered to an ovoid shape with cell shrinkage, loss of flagella, cytoplasmic condensation	7.89 µM							moderately increased	37.8 ± 3.74 nM	86.46 ± 0.21 nM	0.25 µg/mL (≈ 1.13 µM)	0.25 µg/mL (≈ 1.13 µM)	16 µg/mL (≈ 72 µM)	16 µg/mL (≈ 72 µM)	16 µg/mL (≈ 72 µM)	16 µg/mL (≈ 72 µM)	0.5 µg/mL (≈ 2.25 µM)	MIC ([7]; read-out: MIC, Sa ATCC 29213, broth microdilution, 35°C, 24 h): 0.5 µg/mL (≈ 2.25 µM)
CC/C(=C\c1ccc([N+](=O)[O-])cc1)[N+](=O)[O-] [Compound 9, 1-nitro-4-((E)-2-nitrobut-1-enyl) benzene]	altered to an ovoid shape with cell shrinkage, loss of flagella, cytoplasmic condensation	8.05 µM							moderately increased	23.4 ± 0.71 nM	90.2 ± 1.11 nM	2 to 16 µg/mL (≈ 9 to 72 µM)	4 µg/mL (≈ 18 µM)	16 to 32 µg/mL (≈ 72 to 144 µM)	32 µg/mL (≈ 144 µM)	16 to 32 µg/mL (≈ 72 to 144 µM)	32 µg/mL (≈ 144 µM)	8 µg/mL (≈ 36 µM)	MIC, Se ATCC 14990 [4, 20]: 4 µg/mL (≈ 18 µM); MIC, Ec ATCC 25922 [5, 20]: 16 µg/mL (≈ 72 µM); MIC, Pa ATCC 27853 [6, 20]: 16 µg/mL (≈ 72 µM)
COc1ccc(/C=C(\C)[N+](=O)[O-])cc1 [Compound 14, 1-methoxy-4-((E)-2-nitroprop-1-enyl) benzene]	altered to an ovoid shape with cell shrinkage, loss of flagella, cytoplasmic condensation	5.89 µM	40.5 ± 1.47 nM	89 ± 0.52 nM	4 µg/mL (≈ 20.7 µM)	> 64 µg/mL	> 64 µg/mL	8 µg/mL (≈ 41.4 µM)	mildly induced										MIC ([4]; broth microdilution, 35°C, 24 h, read-out: MIC, Se ATCC 14990): 4 µg/mL (≈ 20.7 µM); MIC ([5]; broth microdilution, 35°C, 24 h, read-out: MIC, Ec ATCC 25922): 64 µg/mL (≈ 331 µM); MIC ([6]; broth microdilution, 35°C, 24 h, read-out: MIC, Pa ATCC 27853): > 64 µg/mL; MIC ([7]; broth microdilution, 35°C, 24 h, read-out: MIC, Sa ATCC 29213): 8 µg/mL (≈ 41.4 µM)
